Where a SMILES comes first, the peptide text is derived from it. Bridges are numbered along the chain shown (N, C = ends). [ ]: non-standard residue; d: D form. hPhe(3-Cl-4-CF3) = N[C@@H](CCc1ccc(C(F)(F)F)c(Cl)c1)C(=O)O; NPrPhe(4-CF3) = CCCN[C@@H](Cc1ccc(C(F)(F)F)cc1)C(=O)O; NMeGly(cPent) = CN[C@H](C(=O)O)C1CCCC1; Pro(4,4-F2) = O=C(O)[C@@H]1CC(F)(F)CN1; Hyp = O=C(O)[C@@H]1C[C@@H](O)CN1; NMeD = CN[C@@H](CC(=O)O)C(=O)O; NMeL = CN[C@@H](CC(C)C)C(=O)O; Ac5c = NC1(C(=O)O)CCCC1; Aze = O=C(O)[C@@H]1CCN1; Ac4c = NC1(C(=O)O)CCC1; NEtG = CCNCC(=O)O; Sar = CNCC(=O)O
Legend:
[1] = target: GDP-bound HRAS wild-type protein (Homo sapiens, UniProt P01112); test: Binding to HRAS by surface plasmon resonance (SPR), Single Cycle Kinetics; conditions: KD ratio HRAS/KRAS, SPR
Chain of GDP-bound HRAS wild-type protein (P01112 whole entry): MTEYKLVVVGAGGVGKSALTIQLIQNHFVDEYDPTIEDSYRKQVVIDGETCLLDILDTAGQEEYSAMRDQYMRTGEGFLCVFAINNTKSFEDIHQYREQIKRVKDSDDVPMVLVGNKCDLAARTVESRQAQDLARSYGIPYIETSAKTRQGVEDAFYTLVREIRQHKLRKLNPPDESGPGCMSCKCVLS

[2] = target: GDP-bound NRAS wild-type protein (Homo sapiens, UniProt P01111); test: Binding to NRAS by surface plasmon resonance (SPR), Single Cycle Kinetics; conditions: KD ratio NRAS/KRAS, SPR
Chain of GDP-bound NRAS wild-type protein (P01111 whole entry): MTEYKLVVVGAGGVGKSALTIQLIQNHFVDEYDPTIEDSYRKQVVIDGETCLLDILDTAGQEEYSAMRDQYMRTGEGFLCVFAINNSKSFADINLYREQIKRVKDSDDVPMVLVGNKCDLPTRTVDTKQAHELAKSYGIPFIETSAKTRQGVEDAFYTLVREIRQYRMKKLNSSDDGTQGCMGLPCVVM

| SMILES | HRAS/KRAS (ratio of KD value with respect to GDP-bound HRAS wild-type protein to KD value with respect to KRAS) [1] | NRAS/KRAS (ratio of KD value with respect to GDP-bound NRAS wild-type protein to KD value with respect to KRAS) [2] |
| --- | --- | --- |
| CCCN1C(=O)CN(C)C(=O)CNC(=O)[C@H]([C@@H](C)CC)NC(=O)[C@H](CC(C)C)N(C)C(=O)C[C@@H](C(=O)N(C)C)N(C)C(=O)[C@H](C2CCCC2)N(C)C(=O)C2(CCC2)NC(=O)[C@@H]2CCCN2C(=O)[C@H](CCc2ccc(C(F)(F)F)c(Cl)c2)NC(=O)CN(C)C(=O)[C@@H]1Cc1ccc(C(F)(F)F)cc1 [PP0418] ([NMeL]IG[Sar][NPrPhe(4-CF3)][Sar][hPhe(3-Cl-4-CF3)]P[Ac4c][NMeGly(cPent)][NMeD]-NMe2; lactam N-11) | C (A compound having a KD ratio of 0.1 or more and less than 3 is denoted as C) | B (a compound having 3 or more and less than 10 is denoted as B) |
| CCCN1C(=O)CN(C)C(=O)CNC(=O)[C@H]([C@@H](C)CC)NC(=O)[C@H](CC(C)C)N(C)C(=O)C[C@@H](C(=O)N(C)C)N(C)C(=O)[C@H](C2CCCC2)N(C)C(=O)C2(CCCC2)NC(=O)[C@@H]2CC(F)(F)CN2C(=O)[C@H](CCc2ccc(C(F)(F)F)c(Cl)c2)NC(=O)CN(C)C(=O)[C@@H]1Cc1ccc(C(F)(F)F)cc1 [PP0419] ([NMeL]IG[Sar][NPrPhe(4-CF3)][Sar][hPhe(3-Cl-4-CF3)][Pro(4,4-F2)][Ac5c][NMeGly(cPent)][NMeD]-NMe2; lactam N-11) | C (A compound having a KD ratio of 0.1 or more and less than 3 is denoted as C) | B (a compound having 3 or more and less than 10 is denoted as B) |
| CCCN1C(=O)CN(C)C(=O)CNC(=O)[C@H]([C@@H](C)CC)NC(=O)[C@H](CC(C)C)N(C)C(=O)C[C@@H](C(=O)N(C)C)N(C)C(=O)[C@H](C2CCCC2)N(C)C(=O)C2(CCC2)NC(=O)[C@@H]2CC(F)(F)CN2C(=O)[C@H](CCc2ccc(C(F)(F)F)c(Cl)c2)NC(=O)CN(C)C(=O)[C@@H]1Cc1ccc(C(F)(F)F)cc1 [PP0420] ([NMeL]IG[Sar][NPrPhe(4-CF3)][Sar][hPhe(3-Cl-4-CF3)][Pro(4,4-F2)][Ac4c][NMeGly(cPent)][NMeD]-NMe2; lactam N-11) | C (A compound having a KD ratio of 0.1 or more and less than 3 is denoted as C) | B (a compound having 3 or more and less than 10 is denoted as B) |
| CCCN1C(=O)CN(C)C(=O)CNC(=O)[C@H]([C@@H](C)CC)NC(=O)[C@H](CC(C)C)N(C)C(=O)C[C@@H](C(=O)N(C)C)N(C)C(=O)[C@H](C2CCCC2)N(C)C(=O)C2(CCCC2)NC(=O)[C@@H]2C[C@@H](OCC)CN2C(=O)[C@H](CCc2ccc(C(F)(F)F)c(Cl)c2)NC(=O)CN(C)C(=O)[C@@H]1Cc1ccc(C(F)(F)F)cc1 [PP0421] ([NMeL]IG[Sar][NPrPhe(4-CF3)][Sar][hPhe(3-Cl-4-CF3)][Hyp](Et)[Ac5c][NMeGly(cPent)][NMeD]-NMe2; lactam N-11) | C (A compound having a KD ratio of 0.1 or more and less than 3 is denoted as C) | B (a compound having 3 or more and less than 10 is denoted as B) |
| CCCN1C(=O)CN(C)C(=O)CNC(=O)[C@H]([C@@H](C)CC)NC(=O)[C@H](CC(C)C)N(C)C(=O)C[C@@H](C(=O)N(C)C)N(C)C(=O)[C@H](C2CCCC2)N(C)C(=O)C2(CCC2)NC(=O)[C@@H]2C[C@@H](OCC)CN2C(=O)[C@H](CCc2ccc(C(F)(F)F)c(Cl)c2)NC(=O)CN(C)C(=O)[C@@H]1Cc1ccc(C(F)(F)F)cc1 [PP0422] ([NMeL]IG[Sar][NPrPhe(4-CF3)][Sar][hPhe(3-Cl-4-CF3)][Hyp](Et)[Ac4c][NMeGly(cPent)][NMeD]-NMe2; lactam N-11) | B (a compound having 3 or more and less than 10 is denoted as B) | B (a compound having 3 or more and less than 10 is denoted as B) |
| CCCN1C(=O)CN(C)C(=O)CN(CC)C(=O)[C@H]([C@@H](C)CC)NC(=O)[C@H](CC(C)C)N(C)C(=O)C[C@@H](C(=O)N(C)C)N(C)C(=O)[C@H](C2CCCC2)N(C)C(=O)C2(CCCC2)NC(=O)[C@@H]2CCCN2C(=O)[C@H](CCc2ccc(C(F)(F)F)c(Cl)c2)NC(=O)CN(C)C(=O)[C@@H]1Cc1ccc(C(F)(F)F)cc1 [PP0423] ([NMeL]I[NEtG][Sar][NPrPhe(4-CF3)][Sar][hPhe(3-Cl-4-CF3)]P[Ac5c][NMeGly(cPent)][NMeD]-NMe2; lactam N-11) | C (A compound having a KD ratio of 0.1 or more and less than 3 is denoted as C) | B (a compound having 3 or more and less than 10 is denoted as B) |
| CCCN1C(=O)CN(C)C(=O)CN(CC)C(=O)[C@H]([C@@H](C)CC)NC(=O)[C@H](CC(C)C)N(C)C(=O)C[C@@H](C(=O)N(C)C)N(C)C(=O)[C@H](C2CCCC2)N(C)C(=O)C2(CCC2)NC(=O)[C@@H]2CCCN2C(=O)[C@H](CCc2ccc(C(F)(F)F)c(Cl)c2)NC(=O)CN(C)C(=O)[C@@H]1Cc1ccc(C(F)(F)F)cc1 [PP0424] ([NMeL]I[NEtG][Sar][NPrPhe(4-CF3)][Sar][hPhe(3-Cl-4-CF3)]P[Ac4c][NMeGly(cPent)][NMeD]-NMe2; lactam N-11) | C (A compound having a KD ratio of 0.1 or more and less than 3 is denoted as C) | B (a compound having 3 or more and less than 10 is denoted as B) |
| CCCN1C(=O)CN(C)C(=O)CN(CC)C(=O)[C@H]([C@@H](C)CC)NC(=O)[C@H](CC(C)C)N(C)C(=O)C[C@@H](C(=O)N(C)C)N(C)C(=O)[C@H](C2CCCC2)N(C)C(=O)C2(CCCC2)NC(=O)[C@@H]2CC(F)(F)CN2C(=O)[C@H](CCc2ccc(C(F)(F)F)c(Cl)c2)NC(=O)CN(C)C(=O)[C@@H]1Cc1ccc(C(F)(F)F)cc1 [PP0425] ([NMeL]I[NEtG][Sar][NPrPhe(4-CF3)][Sar][hPhe(3-Cl-4-CF3)][Pro(4,4-F2)][Ac5c][NMeGly(cPent)][NMeD]-NMe2; lactam N-11) | C (A compound having a KD ratio of 0.1 or more and less than 3 is denoted as C) | B (a compound having 3 or more and less than 10 is denoted as B) |
| CCCN1C(=O)CN(C)C(=O)CN(CC)C(=O)[C@H]([C@@H](C)CC)NC(=O)[C@H](CC(C)C)N(C)C(=O)C[C@@H](C(=O)N(C)C)N(C)C(=O)[C@H](C2CCCC2)N(C)C(=O)C2(CCC2)NC(=O)[C@@H]2CC(F)(F)CN2C(=O)[C@H](CCc2ccc(C(F)(F)F)c(Cl)c2)NC(=O)CN(C)C(=O)[C@@H]1Cc1ccc(C(F)(F)F)cc1 [PP0426] ([NMeL]I[NEtG][Sar][NPrPhe(4-CF3)][Sar][hPhe(3-Cl-4-CF3)][Pro(4,4-F2)][Ac4c][NMeGly(cPent)][NMeD]-NMe2; lactam N-11) | C (A compound having a KD ratio of 0.1 or more and less than 3 is denoted as C) | C (A compound having a KD ratio of 0.1 or more and less than 3 is denoted as C) |
| CCCN1C(=O)CN(C)C(=O)CN(CC)C(=O)[C@H]([C@@H](C)CC)NC(=O)[C@H](CC(C)C)N(C)C(=O)C[C@@H](C(=O)N(C)C)N(C)C(=O)[C@H](C2CCCC2)N(C)C(=O)C2(CCCC2)NC(=O)[C@@H]2C[C@@H](OCC)CN2C(=O)[C@H](CCc2ccc(C(F)(F)F)c(Cl)c2)NC(=O)CN(C)C(=O)[C@@H]1Cc1ccc(C(F)(F)F)cc1 [PP0427] ([NMeL]I[NEtG][Sar][NPrPhe(4-CF3)][Sar][hPhe(3-Cl-4-CF3)][Hyp](Et)[Ac5c][NMeGly(cPent)][NMeD]-NMe2; lactam N-11) | C (A compound having a KD ratio of 0.1 or more and less than 3 is denoted as C) | B (a compound having 3 or more and less than 10 is denoted as B) |
| CCCN1C(=O)CN(C)C(=O)CN(CC)C(=O)[C@H]([C@@H](C)CC)NC(=O)[C@H](CC(C)C)N(C)C(=O)C[C@@H](C(=O)N(C)C)N(C)C(=O)[C@H](C2CCCC2)N(C)C(=O)C2(CCC2)NC(=O)[C@@H]2C[C@@H](OCC)CN2C(=O)[C@H](CCc2ccc(C(F)(F)F)c(Cl)c2)NC(=O)CN(C)C(=O)[C@@H]1Cc1ccc(C(F)(F)F)cc1 [PP0428] ([NMeL]I[NEtG][Sar][NPrPhe(4-CF3)][Sar][hPhe(3-Cl-4-CF3)][Hyp](Et)[Ac4c][NMeGly(cPent)][NMeD]-NMe2; lactam N-11) | C (A compound having a KD ratio of 0.1 or more and less than 3 is denoted as C) | B (a compound having 3 or more and less than 10 is denoted as B) |
| CCCN1C(=O)CN(C)C(=O)[C@@H]2CCN2C(=O)[C@H]([C@@H](C)CC)NC(=O)[C@H](CC(C)C)N(C)C(=O)C[C@@H](C(=O)N(C)C)N(C)C(=O)[C@H](C2CCCC2)N(C)C(=O)C2(CCCC2)NC(=O)[C@@H]2CCCN2C(=O)[C@H](CCc2ccc(C(F)(F)F)c(Cl)c2)NC(=O)CN(C)C(=O)[C@@H]1Cc1ccc(C(F)(F)F)cc1 [PP0429] ([NMeL]I[Aze][Sar][NPrPhe(4-CF3)][Sar][hPhe(3-Cl-4-CF3)]P[Ac5c][NMeGly(cPent)][NMeD]-NMe2; lactam N-11) | C (A compound having a KD ratio of 0.1 or more and less than 3 is denoted as C) | B (a compound having 3 or more and less than 10 is denoted as B) |
